Assay results from the supplement of paper PMC10307832.

Columns and labels:
Test in all cases: relative viability (nuclei count vs DMSO), 5 days (fraction); higher = more cells survive
[1] = compound: Cn1c(Nc2ccc(C(F)(F)F)cc2)nc2cc(Oc3ccnc(-c4ncc(C(F)(F)F)[nH]4)c3)ccc21 [RAF265] + C[C@]1(O)C[C@@H](c2nc(-c3ccc4ccc(-c5ccccc5)nc4c3)c3c(N)nccn32)C1 [Linsitinib] (partner 1 µM)
In short: (§1)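 Lung cancer cell lines were seeded in 1536-well plates and dosed by pin tool the next day, with either a single drug or a fixed anchor-drug dose combined with five library-drug doses (not always all listed) spaced in √10 steps. Five days later, one step fixed the cells and stained their nuclei (final 0.05% Triton X-100, 1% formaldehyde, 1 ug/ml Hoechst), and nuclei were counted on 4× images. Relative viability is the nuclei count in treated wells divided by the count in vehicle wells, and each value is the median of duplicate plates.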

[2] = compound: C1=CC=C2C(=C1)C=CC(=C2SSC3=C(C=CC4=CC=CC=C43)O)O [IPA-3] + N=C(N)NC(=N)NCCc1ccccc1 [Phenformin] (partner 250 µM)
In short: as §1

[3] = compound: C1=CC=C2C(=C1)C=CC(=C2SSC3=C(C=CC4=CC=CC=C43)O)O [IPA-3] + O=C(CCCCCCC(=O)Nc1ccccc1)NO [Vorinostat] (partner 1 µM)
In short: as §1

[4] = compound: Cc1ccc(-n2nc(C(C)(C)C)cc2NC(=O)Nc2ccc(OCCN3CCOCC3)c3ccccc23)cc1 [Doramapimod] + N=C(N)NC(=N)NCCc1ccccc1 [Phenformin] (partner 250 µM)
In short: as §1

UMC-11
relative viability ([1]; first compound 0.01 µM): 1 | relative viability ([1]; first compound 0.03162 µM): 0.993 | relative viability ([1]; first compound 0.1 µM): 0.953 | relative viability ([1]; first compound 0.3162 µM): 0.986 | relative viability ([1]; first compound 1 µM): 0.973 | relative viability ([2]; first compound 0.2 µM): 0.391 | relative viability ([2]; first compound 0.6325 µM): 0.336 | relative viability ([2]; first compound 2 µM): 0.316 | relative viability ([2]; first compound 6.325 µM): 0.341 | relative viability ([2]; first compound 20 µM): 0.357 | relative viability ([3]; first compound 0.2 µM): 0.395 | relative viability ([3]; first compound 0.6325 µM): 0.425 | relative viability ([3]; first compound 2 µM): 0.389 | relative viability ([3]; first compound 6.325 µM): 0.394 | relative viability ([3]; first compound 20 µM): 0.409 | relative viability ([4]; first compound 0.02 µM): 0.319 | relative viability ([4]; first compound 0.06325 µM): 0.32 | relative viability ([4]; first compound 0.2 µM): 0.339 | relative viability ([4]; first compound 0.6325 µM): 0.368 | relative viability ([4]; first compound 2 µM): 0.309
